# Test system: primary acute myeloid leukaemia (AML) blasts
# Assay: In vitro cytotoxicity assay (LD50) in primary acute myeloid leukaemia cells
# Type: cell-based, human
# Details: primary AML blasts, 48 h; concentration required to kill 50% of the tumour cells in culture
# Experimental: ProTide compounds, as defined herein, and the comparator ProTide compound NUC-1031 were assayed for their cytotoxic effects on primary cultures of acute myeloid leukaemia (AML) blasts. LD50 values (the concentration required to kill 50% of the tumour cells in culture) were calculated in respect of the ProTide compounds of the invention, and the parent compounds from which they are derived. […] The LD50 values of the ProTide compounds as defined herein (and their parent compounds) were compared with the comparator ProTide NUC-1031 and its parent compound gemcitabine.
# Bone marrow samples were collected in ethylenediaminetetraacetic acid (EDTA) from newly diagnosed, previously untreated, acute myeloid leukaemia (AML) patients. AML blasts were enriched by density gradient centrifugation using Histopaque (Sigma, Poole, UK) and were subsequently maintained in Roswell Park Memorial Institute medium (RPMI) supplemented with 10% foetal bovine serum (FBS). Cells were treated with ProTide compounds (either as encompassed by the present invention, or the comparator ProTide NUC-1031) or with the ProTides' parent compounds at a range of experimental concentrations, and incubated for 48 h. All cultures were maintained at 37° C. in a 5% CO2 humidified atmosphere.
# Cells were harvested and labelled with CD34-fluorescein isothiocyanate (FITC) (BD Biosciences, Buckingham, UK) and then resuspended in 200 μl of binding buffer containing 4 μl of annexin V labelled with allophycocyanin (APC) (eBioscience Ltd, Hatfield, UK). Apoptosis was quantified in the CD34^+ AML cells using an Accuri C6 flow cytometer (Becton Dickinson, CA, USA). At least 10,000 events were acquired and data were subsequently analysed using FlowJo software (Tree Star Inc., Ashland, Oreg., USA). All LD50 values (concentration of drug required to kill 50% of cells) were derived from the dose-response curves.
structure (smiles),measurement,value
"C[C@H](NP(=O)(OC[C@H]1O[C@@H](n2ccc(N)nc2=O)C(F)(F)[C@@H]1O)Oc1ccccc1)C(=O)OCc1ccccc1 (stereo partly drawn) [NUC-1031, 2′-deoxy-2′,2′-difluoro-D-cytidine-5′-O-[phenyl (benzoxy-L-alaninyl)] phosphate]",LD50,NUC-1031 0.28 μM
